Reference: patent US9546173B2 (Novartis AG, priority 2012, dated 2017)

These molecules were tested against activated ERK2 (Homo sapiens (Human), UniProt P28482) (assay: Activated ERK2 kinase assay (AlphaScreen, ERKtide peptide phosphorylation)). Conditions: […] ERK2, 200 nM ERKtide peptide, 35 μM ATP, 30 min preincubation; read-out: ERK2 IC50.
Type: biochemical
From the text: Production of Activated ERK2 Protein:
Activated ERK2 protein was generated in insect cells by co-expression with a constitutively active form of MEK1. The ERK2 protein was expressed and purified as a nHis-PreScission-ERK2 tagged protein and then proteolytically processed to the full-length wild-type protein. […] Double-phosphorylated ERK2 protein was purified from the mixture by mono-Q column separation.
Activated ERK2 Kinase Assay:
A 16-point, half-log dilution series of compounds at 41× final concentration was used for generating IC50 curves. Compound dilution series were prepared in 100% DMSO. ERK2 was preincubated with compounds for 30 minutes at ambient temperature. Reaction was initiated by addition of a substrate cocktail of ERKtide peptide and ATP and was allowed to proceed for 2-3 hours at ambient temperature. Reaction was terminated by addition of 10 μL of a 2× stop buffer consisting of 100 mM Tris-Cl [pH 7.5], 25 mM EDTA, 0.01% Tween 20, 10 μg/mL of AlphaScreen Protein A Acceptor Beads, 10 μg/mL of Streptavidin Donor Beads (PerkinElmer, Waltham, Mass.), and 1.4 μg/mL phospho-EGF Receptor (Thr669) antibody (Cat #3056, Cell Signaling Technology, Danvers, Mass.). Terminated reactions were read, after overnight incubation in the dark, on an EnVision Multilabel Plate Reader (PerkinElmer, Waltham, Mass.), with excitation and emission wavelengths set to 680 nm and 570 nm, respectively. IC50 values were determined using a four-parameter fit.

activated ERK2, sequence (P28482 whole entry): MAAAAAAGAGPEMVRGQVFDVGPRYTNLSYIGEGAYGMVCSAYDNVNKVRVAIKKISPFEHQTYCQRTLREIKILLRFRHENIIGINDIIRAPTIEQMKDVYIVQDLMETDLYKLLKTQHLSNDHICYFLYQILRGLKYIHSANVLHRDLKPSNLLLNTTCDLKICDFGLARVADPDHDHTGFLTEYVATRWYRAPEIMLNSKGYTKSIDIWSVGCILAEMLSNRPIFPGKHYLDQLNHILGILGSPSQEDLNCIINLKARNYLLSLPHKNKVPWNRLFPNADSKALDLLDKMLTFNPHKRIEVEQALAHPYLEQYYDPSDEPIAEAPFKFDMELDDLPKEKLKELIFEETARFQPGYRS

IC50	Compound
125 nM	CC1(C)c2cnc(NC3CCOCC3)nc2CN1C(=O)NC(c1ccccc1)C(F)(F)F (stereo not drawn) [compound 26, 5,5-dimethyl-2-((tetrahydro-2H-pyran-4-yl)amino)-N-(2,2,2-trifluoro-1-phenylethyl)-5H-pyrrolo[3,4-d]pyrimidine-6(7H)-carboxamide]
202 nM	CN(Cc1ccccc1)C(=O)N1Cc2nc(NC3CCOCC3)ncc2C1(C)C [compound 27, N-benzyl-N,5,5-trimethyl-2-((tetrahydro-2H-pyran-4-yl)amino)-5H-pyrrolo[3,4-d]pyrimidine-6(7H)-carboxamide]
10 nM	CC1(C)c2cnc(NC3CCOCC3)nc2CN1C(=O)NCc1ccc(Cl)cc1 [compound 28, N-(4-chlorobenzyl)-5,5-dimethyl-2-((tetrahydro-2H-pyran-4-yl)amino)-5H-pyrrolo[3,4-d]pyrimidine-6(7H)-carboxamide]
159 nM	CC1(C)c2cnc(NC3CCOCC3)nc2CN1C(=O)NCc1ccccc1Cl [compound 29, N-(2-chlorobenzyl)-5,5-dimethyl-2-((tetrahydro-2H-pyran-4-yl)amino)-5H-pyrrolo[3,4-d]pyrimidine-6(7H)-carboxamide]
49 nM	CC1(C)c2cnc(NC3CCOCC3)nc2CN1C(=O)NCc1nc2ccccc2s1 [compound 30, N-(benzo[d]thiazol-2-ylmethyl)-5,5-dimethyl-2-((tetrahydro-2H-pyran-4-yl)amino)-5H-pyrrolo[3,4-d]pyrimidine-6(7H)-carboxamide]
14 nM	CC1(C)c2cnc(NC3CCOCC3)nc2CN1C(=O)N[C@H](CN)c1ccccc1 [compound 32, (S)-N-(2-amino-1-phenylethyl)-5,5-dimethyl-2-((tetrahydro-2H-pyran-4-yl)amino)-5H-pyrrolo[3,4-d]pyrimidine-6(7H)-carboxamide]
5440 nM	CC1(C)c2cnc(NC3CCOCC3)nc2CN1C(=O)NCc1cc[nH]c(=O)c1 [compound 34, 5,5-dimethyl-N-((2-oxo-1,2-dihydropyridin-4-yl)methyl)-2-((tetrahydro-2H-pyran-4-yl)amino)-5H-pyrrolo[3,4-d]pyrimidine-6(7H)-carboxamide]
106 nM	CC1(C)c2cnc(NC3CCOCC3)nc2CN1C(=O)NCc1ccc(Cl)cn1 [compound 35, N-((5-chloropyridin-2-yl)methyl)-5,5-dimethyl-2-((tetrahydro-2H-pyran-4-yl)amino)-5H-pyrrolo[3,4-d]pyrimidine-6(7H)-carboxamide]
17 nM	CC1(C)c2cnc(NC3CCOCC3)nc2CN1C(=O)NC1(c2ccccc2)CC1 [compound 36, 5,5-dimethyl-N-(1-phenylcyclopropyl)-2-((tetrahydro-2H-pyran-4-yl)amino)-5H-pyrrolo[3,4-d]pyrimidine-6(7H)-carboxamide]
541 nM	CC1(C)c2cnc(NC3CCOCC3)nc2CN1C(=O)NCC1CC1 [compound 37, N-(cyclopropylmethyl)-5,5-dimethyl-2-((tetrahydro-2H-pyran-4-yl)amino)-5H-pyrrolo[3,4-d]pyrimidine-6(7H)-carboxamide]
516 nM	CC1(C)c2cnc(NC3CCOCC3)nc2CN1C(=O)N[C@H]1c2ccccc2C[C@H]1O [compound 38, N-((1S,2R)-2-hydroxy-2,3-dihydro-1H-inden-1-yl)-5,5-dimethyl-2-((tetrahydro-2H-pyran-4-yl)amino)-5H-pyrrolo[3,4-d]pyrimidine-6(7H)-carboxamide]
< 25000 nM	CC1(C)c2cnc(NC3CCOCC3)nc2CN1C(=O)N[C@@H]1c2ccccc2C[C@@H]1O [compound 39, N-((1R,2S)-2-hydroxy-2,3-dihydro-1H-inden-1-yl)-5,5-dimethyl-2-((tetrahydro-2H-pyran-4-yl)amino)-5H-pyrrolo[3,4-d]pyrimidine-6(7H)-carboxamide]
799 nM	C[C@H](NC(=O)N1Cc2nc(NC3CCOCC3)ncc2C1(C)C)c1ccccc1 [compound 40, (S)-5,5-dimethyl-N-(1-phenylethyl)-2-((tetrahydro-2H-pyran-4-yl)amino)-5H-pyrrolo[3,4-d]pyrimidine-6(7H)-carboxamide]
31 nM	CC1(C)c2cnc(NC3CCOCC3)nc2CN1C(=O)NCc1ccccc1 [compound 46, N-benzyl-5,5-dimethyl-2-((tetrahydro-2H-pyran-4-yl)amino)-5H-pyrrolo[3,4-d]pyrimidine-6(7H)-carboxamide]
988 nM	CNC(=O)N1Cc2nc(NC3CCOCC3)ncc2C1(C)C [compound 49, N,5,5-trimethyl-2-((tetrahydro-2H-pyran-4-yl)amino)-5H-pyrrolo[3,4-d]pyrimidine-6(7H)-carboxamide]
839 nM	CCNC(=O)N1Cc2nc(NC3CCOCC3)ncc2C1(C)C [compound 50, N-ethyl-5,5-dimethyl-2-((tetrahydro-2H-pyran-4-yl)amino)-5H-pyrrolo[3,4-d]pyrimidine-6(7H)-carboxamide]
938 nM	CC(C)NC(=O)N1Cc2nc(NC3CCOCC3)ncc2C1(C)C [compound 51, N-isopropyl-5,5-dimethyl-2-((tetrahydro-2H-pyran-4-yl)amino)-5H-pyrrolo[3,4-d]pyrimidine-6(7H)-carboxamide]

Second part, the molecule before the results:

Compound	IC50
CC1(C)c2cnc(NC3CCCOC3)nc2CN1C(=O)N[C@H](CO)c1ccccc1 (stereo partly drawn) [compound 25, N-((S)-2-hydroxy-1-phenylethyl)-5,5-dimethyl-2-((tetrahydro-2H-pyran-3-yl)amino)-5H-pyrrolo[3,4-d]pyrimidine-6(7H)-carboxamide]	193 nM
CC1(C)c2cnc(NC3CC3)nc2CN1C(=O)N[C@H](CO)c1ccccc1 [compound 31, (S)-2-(cyclopropylamino)-N-(2-hydroxy-1-phenylethyl)-5,5-dimethyl-5H-pyrrolo[3,4-d]pyrimidine-6(7H)-carboxamide]	317 nM
CC(C)[C@@H](C)NC(=O)N1Cc2nc(NC3CCOCC3)ncc2C1(C)C [compound 33, (R)-5,5-dimethyl-N-(3-methylbutan-2-yl)-2-((tetrahydro-2H-pyran-4-yl)amino)-5H-pyrrolo[3,4-d]pyrimidine-6(7H)-carboxamide]	596 nM
CC1(C)c2cnc(NC3CCOCC3)nc2CN1C(=O)N[C@@H]1CCCN(S(=O)(=O)c2ccccc2F)C1 [compound 41, (R)-N-(1-((2-fluorophenyl)sulfonyl)piperidin-3-yl)-5,5-dimethyl-2-((tetrahydro-2H-pyran-4-yl)amino)-5H-pyrrolo[3,4-d]pyrimidine-6(7H)-carboxamide]	13 nM
CC1(C)c2cnc(NC3CCOCC3)nc2CN1C(=O)N[C@@H]1CCCN(S(=O)(=O)c2ccccc2)C1 [compound 42, (R)-5,5-dimethyl-N-(1-(phenylsulfonyl)piperidin-3-yl)-2-((tetrahydro-2H-pyran-4-yl)amino)-5H-pyrrolo[3,4-d]pyrimidine-6(7H)-carboxamide]	27 nM
CC1(C)c2cnc(NC3CCOCC3)nc2CN1C(=O)NC1(c2ccccc2)CCOCC1 [compound 44, 5,5-dimethyl-N-(4-phenyltetrahydro-2H-pyran-4-yl)-2-((tetrahydro-2H-pyran-4-yl)amino)-5H-pyrrolo[3,4-d]pyrimidine-6(7H)-carboxamide]	2730 nM
Cc1cc(Nc2ncc3c(n2)CN(C(=O)N[C@H](CO)c2ccccc2)C3(C)C)ccn1 [compound 45, (S)-N-(2-hydroxy-1-phenylethyl)-5,5-dimethyl-2-((2-methylpyridin-4-yl)amino)-5H-pyrrolo[3,4-d]pyrimidine-6(7H)-carboxamide]	625 nM
CC1(C)c2cnc(NC3CCOCC3)nc2CN1C(=O)NCC1CCCCC1 [compound 47, N-(cyclohexylmethyl)-5,5-dimethyl-2-((tetrahydro-2H-pyran-4-yl)amino)-5H-pyrrolo[3,4-d]pyrimidine-6(7H)-carboxamide]	31 nM
CC1(C)c2cnc(Nc3ccc(F)cc3)nc2CN1C(=O)N[C@H](CO)c1ccccc1 [compound 52, (S)-2-((4-fluorophenyl)amino)-N-(2-hydroxy-1-phenylethyl)-5,5-dimethyl-5H-pyrrolo[3,4-d]pyrimidine-6(7H)-carboxamide]	107 nM
CC1(C)c2cnc(NCC3CC3)nc2CN1C(=O)N[C@H](CO)c1ccccc1 [compound 53, (S)-2-((cyclopropylmethyl)amino)-N-(2-hydroxy-1-phenylethyl)-5,5-dimethyl-5H-pyrrolo[3,4-d]pyrimidine-6(7H)-carboxamide]	505 nM
CC1(C)c2cnc(NC3CC(F)(F)C3)nc2CN1C(=O)N[C@H](CO)c1ccccc1 [compound 54, (S)-2-((3,3-difluorocyclobutyl)amino)-N-(2-hydroxy-1-phenylethyl)-5,5-dimethyl-5H-pyrrolo[3,4-d]pyrimidine-6(7H)-carboxamide]	727 nM
CC1(C)c2cnc(N[C@H]3C[C@@H](O)C3)nc2CN1C(=O)N[C@H](CO)c1ccccc1 [compound 55, N-((S)-2-hydroxy-1-phenylethyl)-2-(((1s,3R)-3-hydroxycyclobutyl)amino)-5,5-dimethyl-5H-pyrrolo[3,4-d]pyrimidine-6(7H)-carboxamide]	677 nM
CC(=O)NCCNc1ncc2c(n1)CN(C(=O)N[C@H](CO)c1ccccc1)C2(C)C [compound 56, (S)-2-((2-acetamidoethyl)amino)-N-(2-hydroxy-1-phenylethyl)-5,5-dimethyl-5H-pyrrolo[3,4-d]pyrimidine-6(7H)-carboxamide]	3500 nM
